pEC50: −log10 of the molar value. Counter-ions that a name gives are not always drawn.
Assays:
[1] = tested on: cellular p-ERK in HCT116 human colorectal carcinoma / A375 human malignant melanoma cell lines; assay: Phospho-ERK cell-based assay (ELISA), Example 4; settings: in either one of the cell lines (HCT116, A375), 2 h or 24 h exposure
Experimental: Example 4 Phospho-ERK Cell-Based Assay
Compounds are tested in a cell-based phospho-ERK ELISA using the following cell lines:
HCT116 human colorectal carcinoma (ATCC)
(§1) A375 human malignant melanoma (ATCC)
(§2) Both cell lines are maintained in DMEM/F12 (1:1) media (Gibco) supplemented with 10% FCS at 37° C. in a 5% CO2 humidified incubator.
Cells are seeded in 96-well plates at 2,000 cells/well and after 24 h they are exposed to different concentrations of compounds in 0.83% DMSO. Cells are grown for a further 2 h or 24 h, fixed with formaldehyde (2% final) and permeabilised with methanol. Following blocking with TBST-3% BSA, fixed cells are incubated with primary antibody (anti-phospho ERK from rabbit) over-night at 4° C. Cells are incubated with Propidium Iodide (DNA fluorescent dye) and detection of cellular p-ERK is performed using an anti-rabbit secondary antibody conjugated to the fluorescent Alexa Fluor 488 dye (Molecular probes). The fluorescence is analysed using the Acumen Explorer (TTP Labtech), a laser-scanning microplate cytometer, and the Alexa Fluor 488 signal is normalised to the PI signal (proportional to cell number).
The EC50 is defined as the concentration at which a given compound achieves a signal half way between the baseline and the maximum response. EC50 values are calculated using the XLfit software package (version 2.0.5).

[2] = tested on: HCT 116 human colorectal carcinoma / A375 human malignant melanoma cell lines; assay: Cell proliferation assay (CellTiter-Glo), Example 3; assay type: cell-based; settings: in either one of the cell lines (HCT 116, A375), 72 h
Experimental: Example 3 Cell Proliferation Assay
Compounds are tested in a cell proliferation assay using the following cell lines:
HCT 116 human colorectal carcinoma (ATCC)
as §1, §2
Cells are seeded in 96-well plates at 2,000 cells/well and after 24 hours they are exposed to different concentrations of compounds in 0.83% DMSO. Cells are grown for a further 72 h, and an equal volume of CellTiter-Glo reagent (Promega) is added to each well. This lyses the cells and generates a luminescent signal proportional to the amount of ATP released (and therefore proportional to the number of cells in the well) that can be detected using a multiwell luminometer.
EC50 values are calculated using the XLfit software package (version 2.0.5).

pEC50 [1]	pEC50 [2]	SMILES
> 5.00	> 5.00	CC(C)(C)OC(=O)N1CCC(ONC(=O)c2oc3ccncc3c2Nc2ccc(I)cc2F)CC1 [Example 16, 4-{[3-(2-Fluoro-4-iodo-phenylamino)-furo[3,2-c]pyridine-2-carbonyl]aminooxy}-piperidine-1-carboxylic acid tert-butyl ester]
> 5.00	> 5.00	O=C(NOC[C@H](O)CO)c1oc2c(Br)cncc2c1Nc1ccc(I)cc1F [Example 18, 7-Bromo-3-(2-fluoro-4-iodo-phenylamino)-furo[3,2-c]pyridine-2-carboxylic acid ((R)-2,3-dihydroxy-propoxy)amide]
> 5.00	> 5.00	O=C(NOCCO)c1oc2c(Cl)cncc2c1Nc1ccc(I)cc1F [Example 39, 7-Chloro-3-(2-fluoro-4-iodo-phenyl-amino)-furo[3,2-c]pyridine-2-carboxylic acid (2-hydroxy-ethoxy)-amide]
> 5.00	> 5.00	O=C(c1oc2ccncc2c1Nc1ccc(I)cc1F)N1C[C@H](O)[C@@H](O)[C@H]1CO [Example 160, (3-(2-fluoro-4-iodophenylamino)furo[3,2-c]pyridin-2-yl)((2R,3S,4S)-3,4-dihydroxy-2-(hydroxymethyl)pyrrolidin-1-yl)methanone]
> 5.00	> 5.00	O=C(c1oc2ccncc2c1Nc1ccc(I)cc1F)N1CC(O)CO1 (stereo not shown) [Example 28, [3-(2-Fluoro-4-iodo-phenylamino)-furo[3,2-c]pyridin-2-yl]-(4-hydroxy-isoxazolidin-2-yl)-methanone]
> 5.00	> 5.00	O=C(NOCCO)c1oc2c(-c3ccccc3)cncc2c1Nc1ccc(I)cc1F [Example 133, 3-(2-Fluoro-4-iodo-phenylamino)-7-phenyl-furo[3,2-c]pyridine-2-carboxylic acid (2-hydroxy-ethoxy)-amide]
> 5.00	> 5.00	O=C(NOC1CNC1)c1oc2ccncc2c1Nc1ccc(I)cc1F [Example 41, 3-(2-Fluoro-4-iodo-phenylamino)-furo[3,2-c]pyridine-2-carboxylic acid (azetidin-3-yloxy)-amide mono formate salt]
> 5.00	> 5.00	CS(=O)(=O)NCCONC(=O)c1oc2ccncc2c1Nc1ccc(I)cc1F [Example 109, 3-(2-Fluoro-4-iodo-phenylamino)-furo[3,2-c]pyridine-2-carboxylic acid (2-methanesulfonylamino-ethoxy)-amide]
> 5.00	> 5.00	O=C(NO[C@H]1CCNC1)c1oc2ccncc2c1Nc1ccc(I)cc1F [Example 38, 3-(2-Fluoro-4-iodo-phenylamino)-furo[3,2-c]pyridine-2-carboxylic acid ((S)-pyrrolidin-3-yloxy)-amide mono formate salt]
> 5.00	> 5.00	O=C(NOC1CCOCC1)c1oc2ccncc2c1Nc1ccc(I)cc1F [Example 25, 3-(2-Fluoro-4-iodo-phenylamino)-furo[3,2-c]pyridine-2-carboxylic acid (tetrahydro-pyran-4-yloxy)-amide]
> 5.00	> 5.00	O=C(NOC[C@H](O)CO)c1oc2cnccc2c1Nc1ccc(I)cc1F [Example 9, 3-(2-Fluoro-4-iodo-phenylamino)-furo[2,3-c]pyridine-2-carboxylic acid ((R)-2,3-dihydroxy-propoxy)-amide]
> 5.00	> 5.00	O=C(NOC[C@H](O)CO)c1oc2ccncc2c1Nc1ccc(I)cc1 [Example 12, 3-(4-Iodo-phenylamino)-furo[3,2-c]pyridine-2-carboxylic acid ((R)-2,3-dihydroxy-propoxy)-amide]
> 5.00	> 5.00	Cc1cncc2c(Nc3ccc(I)cc3F)c(C(=O)NOCCO)oc12 [Example 134, 3-(2-Fluoro-4-iodo-phenylamino)-7-methyl-furo[3,2-c]pyridine-2-carboxylic acid (2-hydroxy-ethoxy)-amide]
> 5.00	> 5.00	C#Cc1ccc(Nc2c(C(=O)NOC[C@H](O)CO)oc3ccncc23)c(F)c1 [Example 7, 3-(4-Ethynyl-2-fluoro-phenylamino)-furo[3,2-c]pyridine-2-carboxylic acid ((R)-2,3-dihydroxy-propoxy)-amide]
> 5.00	–	O=C(c1oc2ccncc2c1Nc1ccc(I)cc1F)N1CCC[C@@H]1CO [Example 87, (3-(2-fluoro-4-iodophenylamino)furo[3,2-c]pyridin-2-yl)((R)-2-(hydroxylmethyl)pyrrolidin-1-yl)methanone]
> 5.00	–	O=C(NOc1ccccc1)c1oc2ccncc2c1Nc1ccc(I)cc1F [Example 111, 3-(2-Fluoro-4-iodo-phenylamino)-N-phenyloxyfuro[3,2-c]pyridine-2-carboxamide]
> 5.00	–	O=C(NC(CO)CO)c1oc2ccncc2c1Nc1ccc(I)cc1F [Example 68, 3-(2-fluoro-4-iodophenylamino)-N-(1,3-dihydroxypropan-2-yl)furo[3,2-c]pyridine-2-carboxamide]
> 5.00	–	O=C(c1oc2ccncc2c1Nc1ccc(I)cc1F)N1C[C@@H](O)[C@@H](O)C1 [Example 73, (3-(2-fluoro-4-iodophenylamino)furo[3,2-c]pyridin-2-yl)((3S,4R)-3,4-dihydroxypyrrolidin-1-yl)methanone]
> 5.00	–	C[C@@H](O)CONC(=O)c1oc2ccncc2c1Nc1ccc(I)cc1F [Example 117, 3-(2-Fluoro-4-iodo-phenylamino)-furo[3,2-c]pyridine-2-carboxylic acid ((R)-2-hydroxy-propoxy)-amide]
> 5.00	–	O=C(NCC[C@H](O)CO)c1oc2ccncc2c1Nc1ccc(I)cc1F [Example 95, 3-(2-fluoro-4-iodophenylamino)-N-((S)-3,4-dihydroxybutyl)furo[3,2-c]pyridine-2-carboxamide]
> 5.00	–	CNC(=O)c1oc2ccncc2c1Nc1ccc(I)cc1F [Example 91, 3-(2-fluoro-4-iodophenylamino)-N-methylfuro[3,2-c]pyridine-2-carboxamide]
> 5.00	–	O=C(NOCc1ccccc1)c1oc2ccncc2c1Nc1ccc(I)cc1F [Example 44, (2-Fluoro-4-iodo-phenylamino)-N-benzyloxyfuro[3,2-c]pyridine-2-carboxamide]
> 5.00	–	CC1(O)CCN(C(=O)c2oc3ccncc3c2Nc2ccc(I)cc2F)C1 (stereo not shown) [Example 120, (3-(2-fluoro-4-iodophenylamino)furo[3,2-c]pyridine-2-yl)(3-hydroxy-3-methylpyrrolidin-1-yl)methanone]
> 5.00	–	CONC(=O)c1oc2ccncc2c1Nc1ccc(I)cc1F [Example 29, 3-(2-Fluoro-4-iodo-phenylamino)-furo[3,2-c]pyridine-2-carboxylic acid methoxy-amide]
> 5.00	–	O=C(c1oc2ccncc2c1Nc1ccc(I)cc1F)N1C[C@H](O)[C@@H](O)C1 [Example 60, (3-(2-fluoro-4-iodophenyl amino)furo[3,2-c]pyridin-2-yl)((3S,4S)-3,4-dihydroxypyrrolidin-1-yl)methanone]
> 5.00	–	O=C(NOC[C@H](O)CO)c1oc2c(F)cncc2c1Nc1ccc(I)cc1F [Example 159, 7-Fluoro-3-(2-fluoro-4-iodo-phenylamino)-furo[3,2-c]pyridine-2-carboxylic acid ((R)-2,3-dihydroxy-propoxy)-amide]

From patent US20080085886A1, “Aza-benzofuranyl compounds and methods of use” (GENENTECH, INC., priority 2006, published 2008)
